Where “and” joins values, the source holds several entries; their conditions need not be identical. Identical values can stand only once.

This experiment concerns FGF2. Kind of experiment: Intramuscular FGF2 in gastrocnemius muscle lysates after 8 weeks of dietary supplementation, aged SD rat model of sarcopenia. Format: in vivo, Sprague Dawley (SD) rat. The note with it: for level of intramuscular FGF2, individual rat / level of intramuscular FGF2, AVE: aged (21 month) SD rats, gastrocnemius lysate, end of 8 week study, EGCg 50 mg/kg bw; for level of intramuscular FGF2, individual rat: Ca-HMB 340 mg/kg bw in AIN-93M diet, one value per rat (Rat 1-10); for % Change from Control (intramuscular FGF2): group average vs control diet AIN-93M, 8 weeks; for level of intramuscular FGF2, AVE: group average, Ca-HMB 340 mg/kg bw. How it is done: Example 3 illustrates the effect of 8 weeks of dietary supplementation in the aged Sprague Dawley (SD) rat model of sarcopenia. More particularly, the level of intramuscular FGF2 in gastrocnemius muscle lysates of aged SD rats (21 month) were analyzed and compared. The four experimental groups included:
1) control group: fed AIN-93M (purified diet);
2) EGCg group: fed AIN-93M+EGCg (Teavigo®-DSM-50 mg/kg bw);
3) HMB group: fed AIN-93M+Ca-HMB (340 mg/kg bw); and
4) HMB+EGCg group: fed AIN-93M+Ca-HMB (340 mg/kg bw)+EGCg (Teavigo®-50 mg/kg bw).
A total of 40 rats were divided equally among the four groups. Whole gastrocnemius muscles were collected from euthanized rats and flash frozen in liquid nitrogen. Approximately 200 mg tissue was obtained from each muscle by mechanical biopsy punch. Specimens were then pulverized on liquid nitrogen and transferred to 15 mL conical tube and weighed. A mild, detergent free lysis buffer (9×) was added to the dried specimen in the conical tube. 9× Lysis buffer (50 mM Tris.HCl, 2 mM EDTA, pH 7.4/NaOH) was supplemented with a mammalian protease inhibitor cocktail (Sigma) at a 1:200 dilution and stored on ice. The specimens were then vortexed again for 10 sec. and transferred to a 1.5 mL tube. Lysates were centrifuged/clarified for 5 min. at 11000 rpm at 4° C. in a standard table-top Eppendorf centrifuge. Supernatant (1 mL) was aliquotted to a 2 mL cryotube and stored at −80° C. Lystates were analyzed by Myriad Rules Based Medicine (Austin, Tex.) on the RodentMAP® v. 2.0 Antigens and Rat METABOLIC® multi-analyte profiling platforms.

With epigallocatechin-3-gallate [EGCg], the “level of intramuscular FGF2, individual rat” value is 3.7 ng/mL of lysate (2×) and 16.0 ng/mL of lysate and 15.0 ng/mL of lysate and 9.9 ng/mL of lysate and 5.5 ng/mL of lysate and 3.1 ng/mL of lysate (3×) and 7.8 ng/mL of lysate; the “% Change from Control (intramuscular FGF2)” value is listed as −2.9%; the “level of intramuscular FGF2, AVE” value is recorded as 7.09 ng/mL of lysate.
`CC(C)(O)CC(=O)O` [HMB, beta-hydroxy-beta-methylbutyrate]: the “level of intramuscular FGF2, individual rat” value was 15.0 ng/mL of lysate and 21.0 ng/mL of lysate and 6.1 ng/mL of lysate and 3.1 ng/mL of lysate and 4.3 ng/mL of lysate and 11.0 ng/mL of lysate and 4.0 ng/mL of lysate and 4.9 ng/mL of lysate; the “% Change from Control (intramuscular FGF2)” value is listed as 18.8%; the “level of intramuscular FGF2, AVE” value was 8.68 ng/mL of lysate.

The values are drawn from patent US20160066610A1, “METHODS FOR ENHANCING AGED MUSCLE REGENERATION” (ABBOTT LABORATORIES, priority 2013, published 2016).
